Inconclusive results and toxic doses are left out. The calls were made as follows: active = survival T/C of 150% or more; inactive = T/C below 125% in these data.
Tested on: CD2F1 mice, L1210 leukemia ip, survival T/C
Assay: NCI In Vivo Anticancer Drug Screen. Data for tumor model L1210 Leukemia (intraperitoneal) in CD2F1 (CDF1) mice
Details: higher = longer survival
Method in brief: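 Mice carrying a transplanted tumor received test compound or vehicle alone. The value is the measurement in the treated group divided by that in the vehicle-treated control group.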

[1] = endpoint: mean survival time, dose: 100.0 mg/kg/injection, schedule: Q01DX009 (ip), vehicle: saline with Tween-80
[2] = endpoint: mean survival time, dose: 100.0 mg/kg/injection, schedule: Q04DX003 (ip), vehicle: saline with Tween-80
[3] = endpoint: mean survival time, dose: 200.0 mg/kg/injection, schedule: Q01DX009 (ip), vehicle: saline with Tween-80
[4] = endpoint: mean survival time, dose: 200.0 mg/kg/injection, schedule: Q04DX003 (ip), vehicle: saline with Tween-80
[5] = endpoint: mean survival time, dose: 400.0 mg/kg/injection, schedule: Q01DX009 (ip), vehicle: saline with Tween-80
[6] = endpoint: mean survival time, dose: 400.0 mg/kg/injection, schedule: Q04DX003 (ip), vehicle: saline with Tween-80

Measured: T/C

Cc1ccc(C2=C(c3ccc(C)cc3)CS(=O)(=O)C2)cc1
inactive: endpoint: mean survival time, dose: 100.0 mg/kg/injection, schedule: Q01DX001 (ip), vehicle: saline with Tween-80 92 % of control | endpoint: mean survival time, dose: 200.0 mg/kg/injection, schedule: Q01DX001 (ip), vehicle: saline with Tween-80 93 % of control | endpoint: mean survival time, dose: 400.0 mg/kg/injection, schedule: Q01DX001 (ip), vehicle: saline with Tween-80 92 % of control | endpoint: mean survival time, dose: 800.0 mg/kg/injection, schedule: Q01DX001 (ip), vehicle: saline with Tween-80 92 % of control

COC(=O)CCCCCCCCO
inactive: [1] 109 % of control | [2] 97 % of control | [3] 101 % of control | [4] 95 % of control | [5] 104 % of control | [6] 90 % of control

C=C1C(=O)OC2CC(C)C3C(O)C(O)C(O)C3(C)CC12 (centres undefined)
inactive: [2] 102 % of control | [4] 104 % of control

CC(=O)C(N=Nc1cccc2c1C(=O)c1cccc(Cl)c1C2=O)C(=O)Nc1ccccc1Cl (centres undefined)
inactive: endpoint: mean survival time, dose: 75.0 mg/kg/injection, schedule: Q01DX001 (ip), vehicle: saline 89 % of control | endpoint: mean survival time, dose: 150.0 mg/kg/injection, schedule: Q01DX001 (ip), vehicle: saline 95 % of control

COc1ccc(C2(C#N)CCCC2)cc1
inactive: endpoint: mean survival time, dose: 100.0 mg/kg/injection, schedule: Q01DX009 (ip), vehicle: saline sonified 94 % of control | [2] 97 % of control | endpoint: mean survival time, dose: 200.0 mg/kg/injection, schedule: Q01DX009 (ip), vehicle: saline sonified 102 % of control | [4] 101 % of control | endpoint: mean survival time, dose: 400.0 mg/kg/injection, schedule: Q01DX009 (ip), vehicle: saline sonified 96 % of control | [6] 95 % of control

O=c1[nH]c(=O)c2ncn(C3OC(CO)C(O)C3O)c2[nH]1.O=c1[nH]c(=O)c2ncn(C3OC(CO)C(O)C3O)c2[nH]1.[NH2-].[NH2-].[Pt+2] (centres undefined)
inactive: endpoint: mean survival time, dose: 6.25 mg/kg/injection, schedule: Q#A X018 (ip), vehicle: water 116 % of control | endpoint: mean survival time, dose: 12.5 mg/kg/injection, schedule: Q04DX003 (ip), vehicle: water 106 % of control | endpoint: mean survival time, dose: 12.5 mg/kg/injection, schedule: Q#A X018 (ip), vehicle: water 116 % of control | endpoint: mean survival time, dose: 25.0 mg/kg/injection, schedule: Q#A X018 (ip), vehicle: water 124 % of control | endpoint: mean survival time, dose: 50.0 mg/kg/injection, schedule: Q04DX003 (ip), vehicle: water 106 % of control | endpoint: mean survival time, dose: 100.0 mg/kg/injection, schedule: Q04DX003 (ip), vehicle: water 111 % of control | endpoint: mean survival time, dose: 200.0 mg/kg/injection, schedule: Q04DX003 (ip), vehicle: water 106 % of control | endpoint: mean survival time, dose: 400.0 mg/kg/injection, schedule: Q04DX003 (ip), vehicle: water 118 % of control

O=C(N=C1OC2C(OC(=O)c3ccccc3)C(COC(=O)c3ccccc3)OC2N1C(=O)c1ccccc1)c1ccccc1 (centres undefined)
inactive: endpoint: mean survival time, dose: 100.0 mg/kg/injection, schedule: Q01DX009 (ip), vehicle: saline 100 % of control | endpoint: mean survival time, dose: 200.0 mg/kg/injection, schedule: Q01DX009 (ip), vehicle: saline 100 % of control | endpoint: median survival time, dose: 100.0 mg/kg/injection, schedule: Q04DX003 (ip), vehicle: saline sonified 87 % of control | endpoint: median survival time, dose: 200.0 mg/kg/injection, schedule: Q04DX003 (ip), vehicle: saline sonified 100 % of control | endpoint: median survival time, dose: 400.0 mg/kg/injection, schedule: Q04DX003 (ip), vehicle: saline sonified 100 % of control

COC(=O)C12C=CC=CC3C(C=C1)NC(=O)C32 (centres undefined)
inactive: endpoint: median survival time, dose: 25.0 mg/kg/injection, schedule: Q04DX002 (ip), vehicle: saline with Tween-80 122 % of control | endpoint: median survival time, dose: 50.0 mg/kg/injection, schedule: Q04DX002 (ip), vehicle: saline with Tween-80 100 % of control | endpoint: median survival time, dose: 100.0 mg/kg/injection, schedule: Q04DX002 (ip), vehicle: saline with Tween-80 100 % of control | endpoint: median survival time, dose: 200.0 mg/kg/injection, schedule: Q04DX002 (ip), vehicle: saline with Tween-80 111 % of control

N#CC(CN1CCOCC1)[N+](=O)[O-] (centres undefined)
inactive: [1] 95 % of control | [3] 100 % of control | [5] 118 % of control

CN(C)CCOc1cccc(Br)c1
inactive: endpoint: mean survival time, dose: 25.0 mg/kg/injection, schedule: Q04DX003 (ip), vehicle: saline 100 % of control | endpoint: mean survival time, dose: 50.0 mg/kg/injection, schedule: Q04DX003 (ip), vehicle: saline 100 % of control | endpoint: mean survival time, dose: 100.0 mg/kg/injection, schedule: Q04DX003 (ip), vehicle: saline 100 % of control

C=CCCC(Cc1ccccc1)C1=NC(C)(C)CC(C)O1 (centres undefined)
inactive: endpoint: mean survival time, dose: 6.25 mg/kg/injection, schedule: Q01DX001 (ip), vehicle: saline 102 % of control | endpoint: mean survival time, dose: 12.5 mg/kg/injection, schedule: Q01DX001 (ip), vehicle: saline 96 % of control | endpoint: mean survival time, dose: 25.0 mg/kg/injection, schedule: Q01DX001 (ip), vehicle: saline 97 % of control

CCCCCCCCCCCCCCOc1ccccc1Cl
inactive: endpoint: mean survival time, dose: 100.0 mg/kg/injection, schedule: Q04DX002 (ip), vehicle: saline with Tween-80 101 % of control | endpoint: mean survival time, dose: 200.0 mg/kg/injection, schedule: Q04DX002 (ip), vehicle: saline with Tween-80 101 % of control | endpoint: mean survival time, dose: 400.0 mg/kg/injection, schedule: Q04DX002 (ip), vehicle: saline with Tween-80 90 % of control
